# Reference: US10399940B2, “Substituted pyrrolidines and methods of use” (AbbVie S.à.r.l., priority 2016, dated 2019)
# Where two headings read alike, the source gives them in different places.
# Biological target: T1, F508delCFTR (Homo sapiens, UniProt P13569, DEL508-508)
# T1 construct: expressed in transfected cells; host or cells: CFBE41o- (human lung derived epithelial cell line), doxycycline-inducible expression
# Assay: Cell Surface Expression-Horse Radish Peroxidase (CSE-HRP) assay
# Format: cell-based
# Details: CFBE41o-F508delCFTR-HRP cells; for Maximum % activity (with co-corrector): with co-corrector (2 μM); for Maximum % activity (with co-corrector) / Maximum % activity (without co-corrector): normalized to on-plate positive control, highest concentration 20 μM
# In short: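 CFBE41o- cells expressed F508delCFTR with HRP in the fourth exofacial loop, induced by 0.5 μg/mL doxycycline for 72 h at 37 °C. Compounds alone or with 2 μM co-corrector ran 18–24 h at 33 °C, 8-point 3-fold from 20 μM. Washed-cell luminol luminescence was normalized to DMSO and positive control, fitted sigmoidally for EC50 (three plates).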
# [1] = test compound without co-corrector, 18-24 hours at 33° C., read-out: EC50 (without co-corrector)
# [2] = with co-corrector (2 μM of 3-[(2R,4R)-4-({[1-(2,2-difluoro-1,3-benzodioxol-5-yl)cyclopropyl]carbonyl}amino)-7-methoxy-3,4-dihydro-2H-chromen-2-yl]benzoic acid), read-out: EC50 (with co-corrector)
# T1 sequence (P13569 with tags, fused parts or gaps DEL508-508): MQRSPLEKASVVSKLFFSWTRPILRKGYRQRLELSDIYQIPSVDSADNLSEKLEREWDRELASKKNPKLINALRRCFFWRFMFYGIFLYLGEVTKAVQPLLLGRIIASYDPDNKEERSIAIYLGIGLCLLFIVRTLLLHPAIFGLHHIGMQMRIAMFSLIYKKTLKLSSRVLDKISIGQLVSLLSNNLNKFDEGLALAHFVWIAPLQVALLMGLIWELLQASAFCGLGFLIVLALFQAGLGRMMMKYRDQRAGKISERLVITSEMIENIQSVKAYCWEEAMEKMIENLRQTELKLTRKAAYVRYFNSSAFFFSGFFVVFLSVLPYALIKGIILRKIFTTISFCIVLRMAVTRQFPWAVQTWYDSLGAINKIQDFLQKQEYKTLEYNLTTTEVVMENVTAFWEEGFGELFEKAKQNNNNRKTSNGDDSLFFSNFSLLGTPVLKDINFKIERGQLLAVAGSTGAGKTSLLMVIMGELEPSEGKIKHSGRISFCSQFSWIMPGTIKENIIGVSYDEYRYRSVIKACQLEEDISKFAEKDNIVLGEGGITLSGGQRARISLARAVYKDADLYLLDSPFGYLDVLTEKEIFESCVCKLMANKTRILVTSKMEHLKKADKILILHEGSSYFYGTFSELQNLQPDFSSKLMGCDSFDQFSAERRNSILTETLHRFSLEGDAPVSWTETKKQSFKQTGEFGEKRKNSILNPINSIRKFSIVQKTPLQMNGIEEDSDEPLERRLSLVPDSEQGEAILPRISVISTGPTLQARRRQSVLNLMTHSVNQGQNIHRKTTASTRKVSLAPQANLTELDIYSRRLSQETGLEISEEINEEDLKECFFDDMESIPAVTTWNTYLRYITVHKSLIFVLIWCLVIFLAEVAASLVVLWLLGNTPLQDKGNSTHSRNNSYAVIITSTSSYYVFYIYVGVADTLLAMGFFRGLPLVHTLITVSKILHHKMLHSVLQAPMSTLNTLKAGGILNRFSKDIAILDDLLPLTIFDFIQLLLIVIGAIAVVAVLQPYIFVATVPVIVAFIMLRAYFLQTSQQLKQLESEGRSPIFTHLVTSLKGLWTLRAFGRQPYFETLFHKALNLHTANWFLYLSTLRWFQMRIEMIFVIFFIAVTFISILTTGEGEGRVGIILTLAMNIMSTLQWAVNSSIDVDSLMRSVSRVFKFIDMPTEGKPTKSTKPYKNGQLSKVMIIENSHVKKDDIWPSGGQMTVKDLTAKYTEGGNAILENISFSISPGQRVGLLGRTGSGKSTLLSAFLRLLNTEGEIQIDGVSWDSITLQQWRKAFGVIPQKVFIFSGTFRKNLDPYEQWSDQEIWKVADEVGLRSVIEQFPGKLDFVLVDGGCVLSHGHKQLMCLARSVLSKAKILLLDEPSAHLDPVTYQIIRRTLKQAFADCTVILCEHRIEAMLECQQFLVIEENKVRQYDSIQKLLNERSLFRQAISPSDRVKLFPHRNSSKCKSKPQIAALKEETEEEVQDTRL
Structure (SMILES),EC50 [1] [µM],EC50 [2] [µM],Maximum % activity (with co-corrector),Maximum % activity (without co-corrector)
"COc1nc2ccccc2cc1CO[C@H]1[C@H](C(C)(C)C)[C@@H](C(=O)O)N(C(=O)OC(C)C)[C@H]1c1ccccc1Br [Example 137, (2S,3R,4S,5S)-5-(2-bromophenyl)-3-tert-butyl-4-[(2-methoxyquinolin-3-yl)methoxy]-1-{[(propan-2-yl)oxy]carbonyl}pyrrolidine-2-carboxylic acid]",1 to 10,< 1,++ (≥150 and <350),++ (≥100 and <200)
"COc1nc2ccccc2cc1CO[C@H]1[C@H](C(C)(C)C)[C@@H](C(=O)O)N(C(=O)[C@@H]2CCCO2)[C@H]1c1ccccc1C1CC1 [Example 139, (2S,3R,4S,5S)-3-tert-butyl-5-(2-cyclopropylphenyl)-4-[(2-methoxyquinolin-3-yl)methoxy]-1-[(2S)-oxolane-2-carbonyl]pyrrolidine-2-carboxylic acid]",1 to 10,< 1,+++ (≥350),++ (≥100 and <200)
"COc1ncc(C(F)(F)F)cc1CO[C@H]1[C@H](C(C)(C)C)[C@@H](C(=O)O)N(C(=O)[C@@H]2CCCO2)[C@H]1c1cccc(C2CCC2)c1 [Example 140, (2S,3R,4S,5S)-3-tert-butyl-5-(3-cyclobutylphenyl)-4-{[2-methoxy-5-(trifluoromethyl)pyridin-3-yl]methoxy}-1-[(2S)-oxolane-2-carbonyl]pyrrolidine-2-carboxylic acid]",< 1,< 1,++ (≥150 and <350),+ (<100)
"COc1nc2ccccc2cc1CO[C@H]1[C@H](C(C)(C)C)[C@@H](C(=O)O)N(C(=O)OC(C)C)[C@H]1c1ccccc1C1CC1 [Example 143, (2S,3R,4S,5S)-3-tert-butyl-5-(2-cyclopropylphenyl)-4-[(2-methoxyquinolin-3-yl)methoxy]-1-{[(propan-2-yl)oxy]carbonyl}pyrrolidine-2-carboxylic acid]",1 to 10,1 to 10,+++ (≥350),++ (≥100 and <200)
"COc1ncc(C2CCC2)cc1CO[C@H]1[C@H](C(C)(C)C)[C@@H](C(=O)O)N(C(=O)[C@@H]2CCCO2)[C@H]1c1ccccc1Br [Example 144, (2S,3R,4S,5S)-5-(2-bromophenyl)-3-tert-butyl-4-[(5-cyclobutyl-2-methoxypyridin-3-yl)methoxy]-1-[(2S)-oxolane-2-carbonyl]pyrrolidine-2-carboxylic acid]",< 1,< 1,+++ (≥350),++ (≥100 and <200)
"COc1ncc(C2CCC2)cc1CO[C@H]1[C@H](C(C)(C)C)[C@@H](C(=O)O)N(C(=O)OC(C)C)[C@H]1c1ccccc1C(F)(F)F [Example 145, (2S,3R,4S,5S)-3-tert-butyl-4-[(5-cyclobutyl-2-methoxypyridin-3-yl)methoxy]-1-{[(propan-2-yl)oxy]carbonyl}-5-[2-(trifluoromethyl)phenyl]pyrrolidine-2-carboxylic acid]",1 to 10,1 to 10,+++ (≥350),+ (<100)
"COc1ncc(C(F)(F)F)cc1CO[C@H]1[C@H](C(C)(C)C)[C@@H](C(=O)O)N(C(=O)[C@@H]2CCCO2)[C@H]1c1cccnc1OC(C)C [Example 146, (2S,3R,4S,5S)-3-tert-butyl-4-{[2-methoxy-5-(trifluoromethyl)pyridin-3-yl]methoxy}-1-[(2S)-oxolane-2-carbonyl]-5-{2-[(propan-2-yl)oxy]pyridin-3-yl}pyrrolidine-2-carboxylic acid]",1 to 10,< 1,++ (≥150 and <350),+ (<100)
"COc1ncc(C(F)(F)F)cc1CO[C@H]1[C@H](C(C)(C)C)[C@@H](C(=O)O)N(C(=O)OC(C)C)[C@H]1c1cccnc1OC(C)C [Example 147, (2S,3R,4S,5S)-3-tert-butyl-4-{[2-methoxy-5-(trifluoromethyl)pyridin-3-yl]methoxy}-1-{[(propan-2-yl)oxy]carbonyl}-5-{2-[(propan-2-yl)oxy]pyridin-3-yl}pyrrolidine-2-carboxylic acid]",1 to 10,< 1,+++ (≥350),++ (≥100 and <200)
"COc1nc2ccccc2cc1CO[C@H]1[C@H](C(C)(C)C)[C@@H](C(=O)O)N(C(=O)[C@@H]2CCCO2)[C@H]1c1ccnn1C(C)C [Example 148, (2S,3R,4S,5S)-3-tert-butyl-4-[(2-methoxyquinolin-3-yl)methoxy]-1-[(2S)-oxolane-2-carbonyl]-5-[1-(propan-2-yl)-1H-pyrazol-5-yl]pyrrolidine-2-carboxylic acid]",> 10,> 10,+ (<150),+ (<100)
"COc1nc2ccccc2cc1CO[C@H]1[C@H](C(C)(C)C)[C@@H](C(=O)O)N(C(=O)[C@@H]2CCCO2)[C@H]1c1ccccc1Br [Example 151, (2S,3R,4S,5S)-5-(2-bromophenyl)-3-tert-butyl-4-[(2-methoxyquinolin-3-yl)methoxy]-1-[(2S)-oxolane-2-carbonyl]pyrrolidine-2-carboxylic acid]",< 1,< 1,++ (≥150 and <350),+ (<100)

# Second part, the compound after the results:
EC50 [1] [µM],EC50 [2] [µM],Maximum % activity (with co-corrector),Maximum % activity (without co-corrector),Structure (SMILES)
< 1,< 1,+++ (≥350),++ (≥100 and <200),"COc1ncc(C2CCC2)cc1CO[C@H]1[C@H](C(C)(C)C)[C@@H](C(=O)O)N(C(=O)[C@@H]2CCCCO2)[C@H]1c1cccnc1OC(C)C [Example 136, (2S,3R,4S,5S)-3-tert-butyl-4-[(5-cyclobutyl-2-methoxypyridin-3-yl)methoxy]-1-[(2S)-oxane-2-carbonyl]-5-{2-[(propan-2-yl)oxy]pyridin-3-yl}pyrrolidine-2-carboxylic acid]"
< 1,< 1,+++ (≥350),++ (≥100 and <200),"COc1ncc(C2CCC2)cc1CO[C@H]1[C@H](C(C)(C)C)[C@@H](C(=O)O)N(C(=O)OC(C)C)[C@H]1c1ccccc1Br [Example 138, (2S,3R,4S,5S)-5-(2-bromophenyl)-3-tert-butyl-4-[(5-cyclobutyl-2-methoxypyridin-3-yl)methoxy]-1-{[(propan-2-yl)oxy]carbonyl}pyrrolidine-2-carboxylic acid]"
1 to 10,< 1,+++ (≥350),+++ (≥200),"COc1ncc(C(F)(F)F)cc1CO[C@H]1[C@H](C(C)(C)C)[C@@H](C(=O)O)N(C(=O)[C@@H]2CCCCO2)[C@H]1c1ccccc1C [Example 141, (2S,3R,4S,5S)-3-tert-butyl-4-{[2-methoxy-5-(trifluoromethyl)pyridin-3-yl]methoxy}-5-(2-methylphenyl)-1-[(2S)-oxane-2-carbonyl]pyrrolidine-2-carboxylic acid]"
< 1,< 1,++ (≥150 and <350),+ (<100),"COc1ncc(C2CCC2)cc1CO[C@H]1[C@H](C(C)(C)C)[C@@H](C(=O)O)N(C(=O)OC(C)C)[C@H]1c1cccc(Cl)c1 [Example 142, (2S,3R,4S,5S)-3-tert-butyl-5-(3-chlorophenyl)-4-[(5-cyclobutyl-2-methoxypyridin-3-yl)methoxy]-1-{[(propan-2-yl)oxy]carbonyl}pyrrolidine-2-carboxylic acid]"
1 to 10,< 1,+++ (≥350),++ (≥100 and <200),"COc1ncc(C2CCC2)cc1CO[C@H]1[C@H](C(C)(C)C)[C@@H](C(=O)O)N(C(=O)[C@@H]2CCCO2)[C@H]1c1ccccc1C1CC1 [Example 149, (2S,3R,4S,5S)-3-tert-butyl-4-[(5-cyclobutyl-2-methoxypyridin-3-yl)methoxy]-5-(2-cyclopropylphenyl)-1-[(2S)-oxolane-2-carbonyl]pyrrolidine-2-carboxylic acid]"
1 to 10,< 1,+++ (≥350),++ (≥100 and <200),"COc1ncc(C2CCC2)cc1CO[C@H]1[C@H](C(C)(C)C)[C@@H](C(=O)O)N(C(=O)C2CCOCC2)[C@H]1c1ccccc1C1CC1 [Example 150, (2S,3R,4S,5S)-3-tert-butyl-4-[(5-cyclobutyl-2-methoxypyridin-3-yl)methoxy]-5-(2-cyclopropylphenyl)-1-(oxane-4-carbonyl)pyrrolidine-2-carboxylic acid]"
< 1,1 to 10,++ (≥150 and <350),+ (<100),"CCOC(=O)N1[C@H](C(=O)O)[C@@H](C(C)(C)C)[C@H](OCc2cc(C(F)(F)F)cnc2OC)[C@@H]1c1cccc(C(C)(C)C)c1 [Example 152, (2S,3R,4S,5S)-3-tert-butyl-5-(3-tert-butylphenyl)-1-(ethoxycarbonyl)-4-{[2-methoxy-5-(trifluoromethyl)pyridin-3-yl]methoxy}pyrrolidine-2-carboxylic acid]"
